“Also recorded” adds a separate entry of the source. No end group written: not given here.
Tests used:
[1] = tested on: post-mitotic OC (primary rat OPC matured by PDGF withdrawal); test: Oligodendrocyte survival assay (calcein / ethidium homodimer live-dead count); assay type: cell-based
Experimental: Whether or not galanin itself is a survival factor for oligodendrocytes in vitro was determined. Primary rat OPC in culture were matured for 48 hours by PDGF withdrawal in the presence of insulin, passaged into poly-1-lysine coated 24 well-plates at a density of 200 cells/well in Sato medium alone or Sato medium supplemented with various concentrations of recombinant rat galanin (Peninsula Biosciences).
Twenty wells/condition were counted in each survival assay and results were verified in four independent experiments using separate batches of primary cells. All counts were performed by an investigator blinded to the experimental condition.

[2] = tested on: cultured primary rat astrocytes or an n-mye immortalized astrocytic cell line; test: Galanin production in response to LIF in astrocytes; assay type: cell-based
mature oligodendrocytes = test: Western blot of galanin in concentrated media of mature oligodendrocytes; assay type: cell-based, rat; conditions: LIF 100 ng/ml, 48 hours, SATO plus insulin
Experimental: (§1) Translation of regulated cytokine and neuropeptide mRNA species into peptides/proteins was confirmed. Mature oligodendrocytes (as above) were plated in 10 cm dishes in SATO plus insulin and added LIF (100 ng/ml) to half the dishes for 48 hours. […] LIF-dependent galanin production in concentrated media from the OC cell line CG4 (FIG. 11) was confirmed. […] All Western blots were performed in triplicate from independent experiments. The LIF-dependent induction of a secretory phenotype in OC was confirmed by galanin immunocytochemistry of OC cultured in insulin +/− LIF for 48 hours (FIG. 13).

[3] = tested on: oligodendrocyte progenitors or mature oligodendrocytes; test: Real-time PCR confirmation of LIF-regulated genes in oligodendrocyte progenitors and mature oligodendrocytes; assay type: cell-based, rat; conditions: LIF for 5 or 24 hours
Experimental: For each of these six regulated genes, independent confirmation was conducted by real-time PCR. Either dividing oligodendrocyte progenitors or mature oligodendrocytes (as above) were exposed to LIF for either 5 or 24 hours, and measured gene induction against baseline (independent baseline cultures for each comparison). […] FIG. 10 illustrates typical results for secretogranin 2 and galanin.

OC = test: Galanin immunocytochemistry of OC cultured in insulin +/- LIF; assay type: cell-based, rat; conditions: LIF-treated versus untreated OC, 48 hours
Experimental: as §1

EAE = conditions: cited from earlier work
cuprizone demyelination = conditions: exogenous LIF, wild-type litter mates; cited from earlier work
[4] = tested on: cultured primary oligodendrocytes; test: Affymetrix gene chip analysis of LIF-induced mRNA in cultured primary oligodendrocytes; assay type: cell-based, rat; conditions: 8 hours of LIF exposure, versus NT3, insulin or Sato only
Experimental: In order to assess mRNA induction promoted by LIF signaling in oligodendrocytes, an Affymetrix array analysis was conducted of cultured primary oligodendrocytes. A2B5 positive, O1 negative oligodendrocyte progenitor cells were isolated by sequential immunopanning from P6 rat optic nerves. After expansion in culture (2 passages, 11 days) in Sato medium in the presence of insulin, platelet-derived growth factor (PDGF) and neurotrophin-3 (NT3) (no CNTF or LIF), the cells were matured by 48 hours of PDGF withdrawal. The NT3 was also withdrawn for this time-period but insulin was maintained. In order to determine gene expression profiles induced by various cytokines, the matured cells were then exposed to one of four conditions for 8 hours: Sato alone, Sato plus insulin, Sato plus LIF, Sato plus NT3. Subsequently, the cells were harvested, mRNA isolated and processed for Affymetrix gene chip hybridization (Rat 230 2.0). The experiments were conducted as independent triplicates. […] The 965 genes identified were subjected to cluster analysis. Distinct clusters of genes were regulated by insulin and LIF (FIG. 9) but not NT-3.

Substance: galanin (GWTLNSAGYLLGPHAIDNHRSFSDKHGLT; ends and bridges not checked; UniProt P10683 33-61, looked up) [29 amino acid neuropeptide; recombinant rat galanin (Peninsula Biosciences) used in the survival assay]
- OC survival in vitro ([1]; 1 nM galanin in Sato medium, versus Sato alone (nil)): highly significant survival effect; also recorded: increased
- OC survival, galanin plus LIF versus galanin alone (synergy) ([1]; Sato medium): not synergistic with LIF
- OC survival in vitro ([1]; higher galanin concentrations (other than 1 nM), versus baseline (nil)): abolished; also recorded: No other galanin concentration is significantly different from baseline

Substance: leukemia inhibitory factor [LIF]
- induction of galanin production [2]: not observed
- galanin production in concentrated media (mature oligodendrocytes): Induction of galanin production was observed
- gene induction against baseline at the RNA level (six genes incl. secretogranin 2 and galanin) [3]: confirmed to be regulated
- galanin staining of OC (OC): intense polar galanin staining
- reduction in density of oligodendrocytes within the spinal cord in established EAE (EAE; MBP-lacZ mice, LIF administration): fully rescued this phenotype
- EAE severity (EAE; recombinant LIF administration): reduces EAE severity
- severity of demyelination (cuprizone demyelination): reduce the severity of demyelination
- regulation of genes (secretogranin II, cytokines/neuropeptides incl. galanin) on gene chip [4]: significantly regulated
